Holding throughout (type): cell-based
The target in assay [1] is T1, human P2X2/3 receptors (Homo sapiens, UniProt P56373+Q9UBL9).
T1 construct: expressed in transfected cells; host or cells: human astrocytoma 1321N1 (1312N1 [sic])
T1 sequence (P56373 1-397): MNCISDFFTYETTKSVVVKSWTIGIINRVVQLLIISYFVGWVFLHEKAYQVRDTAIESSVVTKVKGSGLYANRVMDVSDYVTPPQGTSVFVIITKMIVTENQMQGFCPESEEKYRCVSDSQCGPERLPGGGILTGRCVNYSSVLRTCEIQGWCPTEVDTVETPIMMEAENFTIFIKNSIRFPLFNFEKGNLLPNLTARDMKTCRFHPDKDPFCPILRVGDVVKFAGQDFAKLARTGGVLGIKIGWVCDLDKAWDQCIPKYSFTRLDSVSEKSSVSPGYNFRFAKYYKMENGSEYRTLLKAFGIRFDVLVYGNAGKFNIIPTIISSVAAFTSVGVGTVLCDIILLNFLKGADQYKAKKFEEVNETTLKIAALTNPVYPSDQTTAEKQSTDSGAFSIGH
T1 sequence (Q9UBL9 1-471): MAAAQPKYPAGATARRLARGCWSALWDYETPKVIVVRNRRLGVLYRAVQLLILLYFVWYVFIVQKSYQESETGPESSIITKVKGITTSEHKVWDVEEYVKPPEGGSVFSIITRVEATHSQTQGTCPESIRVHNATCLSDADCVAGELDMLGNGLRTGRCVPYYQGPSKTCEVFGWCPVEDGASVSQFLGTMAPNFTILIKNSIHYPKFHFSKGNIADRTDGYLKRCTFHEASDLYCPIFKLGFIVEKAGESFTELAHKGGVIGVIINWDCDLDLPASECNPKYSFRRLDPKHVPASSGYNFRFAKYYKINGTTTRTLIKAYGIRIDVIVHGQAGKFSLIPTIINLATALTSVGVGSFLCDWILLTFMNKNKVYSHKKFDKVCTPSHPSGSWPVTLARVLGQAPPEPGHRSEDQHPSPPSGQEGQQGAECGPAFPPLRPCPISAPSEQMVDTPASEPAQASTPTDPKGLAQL
Briefly: Intracellular calcium measurement, antagonist activity at human P2X2/3 receptors (hP2X23 1321N1), Fluo8. Conditions: for IC50: column 4); 1321N1 cells, human P2X2/3, Fluo8, agonist ATP at EC50; read-out: 4) hP2X2/3 IC50 [nM] (1321N1); for hP2X23/hP2X3* Selectivity (1321N1): ratio of column 4) hP2X2/3 to column 3) hP2X3, 1321N1. The method, then:
(§1) 3) And 4) Intracellular Calcium Measurement to Compare Antagonist Activity at Human P2X3 Receptors (hP2X3 1321N1) and at Human P2X2/3 Receptors (hP2X23 1321N1)
(§2) The comparison of antagonistic activity at the P2X3 versus the P2X2/3 receptor of the compounds of the invention were performed by use of recombinant cell lines. These cell lines derived originally from the human astrocytoma cell line […] (Macintyre E H, Pontén J, Vatter A E. Acta Pathol Microbiol Scand A. 1972; 80(2):267-83). The cell lines are stably transfected with the human P2X3 receptor forming homotrimeric P2X3 receptors or are co-transfected with P2X2 and P2X3 forming heterotrimeric P2X2/3 receptors. Stimulation of the receptors with the agonist ATP leads to a conformational change of the receptors and influx of extracellular calcium ions through the open ion channel. The cytoplasmatic calcium transient is detected via the calcium sensitive dye Fluo8. The strength of Fluo8 fluorescence signal corresponds to the level of receptor activation. An inhibitor would decrease the signal depending on its potency and concentration. Fluorescence was measured by use of a suitable fluorescence reader.
(§3) On the day before the assay, the cells were plated in culture medium (DMEM high glucose, 10% FCS, 1% MEM non-essential amino acids, 4 mM Glutamax) in 384-well poly-D-lysine coated microtiter plates and kept in a cell incubator (96% humidity, 5% v/v CO2, 37° C.). On the day of the assay medium was exchanged by Fluo8 containing buffer and incubated for 60 minutes. Test compounds were added at various concentrations and plates were incubated for 10 minutes. In the fluorescence reader a 3 seconds baseline measurement was performed and the agonist ATP was applied at EC50 concentration of the respective receptor during constant fluorescence measurement for 120 seconds.
On the technique in general: A change in cytosolic calcium serves as a functional read-out for many receptors and channels.

In assay [2] the target is T2, human P2X3 receptor (Homo sapiens, UniProt P56373).
T2 sequence (P56373 1-397): T1 sequence (P56373 1-397)
Briefly: Intracellular calcium measurement, antagonist activity at human P2X3 receptors (hP2X3 1321N1), Fluo8. Also noted: expressed in transfected cells; host or cells: human astrocytoma 1321N1 (1312N1 [sic]). The note with it: column 3); 1321N1 cells, human P2X3, Fluo8, agonist ATP at EC50. As to the method:
as §1, §2, §3

The target of assay [3] is T2, human P2X3 receptor. The assay is described as follows: Intracellular calcium measurement to assess antagonist activity at human P2X3 receptors (hP2X3 CHO), photina luminescence. The arrangement: expressed in transfected cells; host or cells: Chinese hamster ovary (CHO) cells. Conditions: column 2), CHO cells, agonist α,β-methylene-ATP at EC50. Summed up:
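Antagonism read as lowered photina luminescence after agonist stimulation in recombinant hP2X3/photina CHO cells. Cells seeded one day earlier (30 °C) and reconstituted with 5 μg/ml coelenterazine in 2 mM Ca-tyrode buffer for 3 h at 37 °C before measurement.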

This is an account of results in US11319324B2, “Pyrazolo-pyrrolo-pyrimidine-dione derivatives as P2X3 inhibitors” (Bayer Aktiengesellschaft, priority 2017, dated 2022).

Bounds are passed on as bounds.

Consider `CC(C)N1Cc2c(n(CC(=O)Nc3ccc(F)cn3)c3cc(C4CCN(S(C)(=O)=O)C4)nn3c2=O)C1=O` (racemic) [Example 270, N-(5-fluoropyridin-2-yl)-2-{2-[(±)-1-(methylsulfonyl)pyrrolidin-3-yl]-5,8-dioxo-6-(propan-2-yl)-5,6,7,8-tetrahydro-4H-pyrazolo[1,5-a]pyrrolo[3,4-d]pyrimidin-4-yl}acetamide], for which the IC50 in assay [1] is 6650 nM; in assay [2], 57 nM; in assay [3], 29 nM. Besides, the “hP2X23/hP2X3* Selectivity (1321N1)” value in assay [1] stood at 118.
The matching figures for `CCc1cc2n(CC(=O)Nc3ccc(F)cn3)c3c(c(=O)n2n1)CN(C1CCN(C(=O)NC(C)C)C1)C3=O` (racemic) [Example 274, (±)-3-[2-ethyl-4-{2-[(5-fluoropyridin-2-yl)amino]-2-oxoethyl}-5,8-dioxo-5,8-dihydro-4H-pyrazolo[1,5-a]pyrrolo[3,4-d]pyrimidin-6(7H)-yl]-N-(propan-2-yl)pyrrolidine-1-carboxamide]: more than 32000 nM, 125 nM, 187 nM and more than 256.
The matching figures for `CC(O)c1cc2n(CC(=O)Nc3ccc(F)cn3)c3c(c(=O)n2n1)CN(C(C)C)C3=O` (racemic) [Example 275, N-(5-fluoropyridin-2-yl)-2-{2-[(±)-1-hydroxyethyl]-5,8-dioxo-6-(propan-2-yl)-5,6,7,8-tetrahydro-4H-pyrazolo[1,5-a]pyrrolo[3,4-d]pyrimidin-4-yl}acetamide]: more than 32000 nM, 210 nM, 173 nM and more than 152.
Consider `CCc1cc2n(CC(=O)Nc3ccc(F)cn3)c3c(c(=O)n2n1)CN(C1CCNC1)C3=O` (single isomer, unassigned) [Example 277, 2-{2-ethyl-5,8-dioxo-6-[pyrrolidin-3-yl]-5,6,7,8-tetrahydro-4H-pyrazolo[1,5-a]pyrrolo[3,4-d]-pyrimidin-4-yl}-N-(5-fluoropyridin-2-yl)acetamide], for which the IC50 in assay [1] amounted to 7300 nM; in assay [2] it was 110 nM; in assay [3], 150 nM. Further, in assay [1], the “hP2X23/hP2X3* Selectivity (1321N1)” value was determined as 66.
The matching figures for `CCc1cc2n(CC(=O)Nc3ccc(F)cn3)c3c(c(=O)n2n1)CN(C1CCNC1)C3=O` (single isomer, unassigned) [Example 278, 2-{2-ethyl-5,8-dioxo-6-[pyrrolidin-3-yl]-5,6,7,8-tetrahydro-4H-pyrazolo[1,5-a]pyrrolo[3,4-d]pyrimidin-4-yl}-N-(5-fluoropyridin-2-yl)acetamide]: more than 32000 nM, 675 nM, 650 nM and more than 47.
For `CC(C)N1Cc2c(n(CC(=O)Nc3ccc(F)cn3)c3cc(C4CC4)nn3c2=O)C1=O` [Example 56] the same measures were 9950 nM, 185 nM, 73 nM and 54.
Take `COCc1cc2n(CC(=O)Nc3ccc(F)cn3)c3c(c(=O)n2n1)CN(C(C)C)C3=O` [Example 57]: the IC50 in assay [1] was more than 32000 nM; in assay [2], 265 nM; in assay [3], 125 nM. Moreover, the “hP2X23/hP2X3* Selectivity (1321N1)” value in assay [1] is given as more than 121.
With `CC(C)N1Cc2c(n(CC(=O)Nc3ccc(F)cn3)c3cc(C4CCOCC4)nn3c2=O)C1=O` [Example 58], the figures for the IC50 in assay [1], in assay [2] and in assay [3] were 9850 nM, 36 nM and 24 nM, respectively. Besides, in assay [1], the “hP2X23/hP2X3* Selectivity (1321N1)” value is reported as 277.
For the compound `Cc1ccc(NC(=O)Cn2c3c(c(=O)n4nc(C5CCOCC5)cc24)CN(C(C)C)C3=O)nc1` [Example 59], the IC50 in assay [1] is 13000 nM; in assay [2], 145 nM; in assay [3], 83 nM. In addition, the “hP2X23/hP2X3* Selectivity (1321N1)” value in assay [1] was 90.
Take `CCc1cc2n(CC(=O)Nc3ccc(Cl)cn3)c3c(c(=O)n2n1)CN(CC1CCOC1)C3=O` (stereo not shown) [Example 60]: the values for the IC50 in assay [1], in assay [2] and in assay [3] were more than 19800 nM, 480 nM and 105 nM, respectively. Further, the “hP2X23/hP2X3* Selectivity (1321N1)” value in assay [1] was more than 41.
With `CCc1cc2n(CC(=O)Nc3ccc(C)cn3)c3c(c(=O)n2n1)CN(CC1CCOC1)C3=O` (stereo not shown) [Example 61], the results for the IC50 in assay [1], in assay [2] and in assay [3] were more than 23000 nM, 1930 nM and 695 nM, respectively. In addition, in assay [1], the “hP2X23/hP2X3* Selectivity (1321N1)” value is given as more than 12.
The matching figures for `CCc1cc2n(CC(=O)Nc3ccc(Cl)cn3)c3c(c(=O)n2n1)CN(CC1CCCO1)C3=O` (stereo not shown) [Example 62]: 5150 nM, 240 nM, 55 nM and 21.
For the compound `CCc1cc2n(CC(=O)Nc3ccc(C)cn3)c3c(c(=O)n2n1)CN(CC1CCCO1)C3=O` (stereo not shown) [Example 63], the IC50 in assay [1] worked out at 7400 nM; in assay [2], 370 nM; in assay [3], 355 nM. Moreover, in assay [1], the “hP2X23/hP2X3* Selectivity (1321N1)” value is on record as 20.
As to `CCc1cc2n(CC(=O)Nc3ccccn3)c3c(c(=O)n2n1)CN(C(C)C)C3=O` [Example 64], the values for the IC50 in assay [1], in assay [2] and in assay [3] were more than 32000 nM, 433 nM and 430 nM, respectively. The “hP2X23/hP2X3* Selectivity (1321N1)” value in assay [1] is recorded as more than 74.
Regarding `CCc1cc2n(CC(=O)Nc3ccc(C)cn3)c3c(c(=O)n2n1)CN(C(C)C)C3=O` [Example 65], the values for the IC50 in assay [1], in assay [2] and in assay [3] were 10500 nM, 207 nM and 200 nM, respectively. For the same compound, in assay [1], the “hP2X23/hP2X3* Selectivity (1321N1)” value was found to be 51.
In the case of `CCc1cc2n(CC(=O)Nc3ccc(Cl)cn3)c3c(c(=O)n2n1)CN(C(C)C)C3=O` [Example 66], the IC50 in assay [1] was determined as 5450 nM; in assay [2], 56 nM; in assay [3], 81 nM. Moreover, the “hP2X23/hP2X3* Selectivity (1321N1)” value in assay [1] is 98.
`CCc1cc2n(CC(=O)Nc3ccc(Br)cn3)c3c(c(=O)n2n1)CN(C(C)C)C3=O` [Example 67]: the IC50 in assay [1] came out at 6350 nM; in assay [2], 217 nM; in assay [3], 185 nM. Moreover, the “hP2X23/hP2X3* Selectivity (1321N1)” value in assay [1] amounted to 29.
The matching figures for `CCc1cc2n(CC(=O)Nc3ccc(F)cn3)c3c(c(=O)n2n1)CN(CCNC(=O)OC(C)(C)C)C3=O` [Example 68, tert-butyl {2-[2-ethyl-4-{2-[(5-fluoropyridin-2-yl)amino]-2-oxoethyl}-5,8-dioxo-5,8-dihydro-4H-pyrazolo[1,5-a]pyrrolo[3,4-d]pyrimidin-6(7H)-yl]ethyl}carbamate]: 1660 nM, 10 nM, 17 nM and 160.
Consider `Cc1ccc(-c2cc3n(CC(=O)Nc4ccc(F)cn4)c4c(c(=O)n3n2)CN(C(C)C)C4=O)nc1` [Example 69], for which the values for the IC50 in assay [1], in assay [2] and in assay [3] were 1700 nM, 4 nM and 8 nM, respectively. Also, the “hP2X23/hP2X3* Selectivity (1321N1)” value in assay [1] was 447.
